The target of assay [1] is T1, Polyunsaturated fatty acid lipoxygenase ALOX15 (Oryctolagus cuniculus, UniProt P12530).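 Note: inhibition of 15-lipoxygenase enzyme activity measured with linoleic acid as the substrate; in other assays of this panel Not Active means under 50% inhibition at 10 µM.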
T1 sequence (P12530 whole entry): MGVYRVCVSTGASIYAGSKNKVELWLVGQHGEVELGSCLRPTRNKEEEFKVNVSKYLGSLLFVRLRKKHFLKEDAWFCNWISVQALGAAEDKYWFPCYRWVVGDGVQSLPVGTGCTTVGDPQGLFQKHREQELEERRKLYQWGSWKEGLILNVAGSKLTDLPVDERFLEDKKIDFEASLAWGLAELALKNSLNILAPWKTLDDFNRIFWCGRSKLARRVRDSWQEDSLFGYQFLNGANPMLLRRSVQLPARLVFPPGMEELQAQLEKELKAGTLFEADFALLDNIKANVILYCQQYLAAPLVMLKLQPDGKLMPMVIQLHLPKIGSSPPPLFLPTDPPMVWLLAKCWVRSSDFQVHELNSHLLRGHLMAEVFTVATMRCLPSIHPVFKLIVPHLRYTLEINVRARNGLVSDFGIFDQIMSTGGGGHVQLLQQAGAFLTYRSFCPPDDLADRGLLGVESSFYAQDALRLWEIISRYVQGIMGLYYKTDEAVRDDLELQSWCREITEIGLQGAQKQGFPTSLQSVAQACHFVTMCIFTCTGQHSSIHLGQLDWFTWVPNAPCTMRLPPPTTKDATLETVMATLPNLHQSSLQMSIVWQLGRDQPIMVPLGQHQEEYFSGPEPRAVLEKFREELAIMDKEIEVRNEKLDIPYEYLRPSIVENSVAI
Nature of the assay: biochemical. As to conditions: reticulocytes. It counts as tissue-based, Reticulocytes.

Assay [2] concerns the target Insulin receptor (Rattus norvegicus, UniProt P15127). It counts as cell membranes, Wistar, Liver, Membrane. Note: in other assays of this panel Not Active means under 50% inhibition at 10 µM.
The target of assay [3] is Estrogen receptor beta (Homo sapiens, UniProt Q92731). Particulars: sf9. Note: in other assays of this panel Not Active means under 50% inhibition at 10 µM.
Sequence of Estrogen receptor beta (Q92731 whole entry): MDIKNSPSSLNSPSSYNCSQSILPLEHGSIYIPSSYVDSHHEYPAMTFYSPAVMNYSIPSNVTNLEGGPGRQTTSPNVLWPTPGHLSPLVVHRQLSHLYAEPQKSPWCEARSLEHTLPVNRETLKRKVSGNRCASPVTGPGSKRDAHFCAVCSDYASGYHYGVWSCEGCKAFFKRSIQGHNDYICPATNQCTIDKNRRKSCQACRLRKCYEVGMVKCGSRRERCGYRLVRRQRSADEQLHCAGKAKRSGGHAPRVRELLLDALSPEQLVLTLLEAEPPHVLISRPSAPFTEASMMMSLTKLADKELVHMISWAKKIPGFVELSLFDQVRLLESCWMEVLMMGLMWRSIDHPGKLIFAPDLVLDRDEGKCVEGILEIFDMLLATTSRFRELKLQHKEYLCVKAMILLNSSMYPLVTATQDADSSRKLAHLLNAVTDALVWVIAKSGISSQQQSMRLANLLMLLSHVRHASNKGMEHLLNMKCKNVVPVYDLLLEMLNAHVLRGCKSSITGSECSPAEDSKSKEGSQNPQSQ
The target in assay [4] is T2, C-X-C chemokine receptor type 2 (Homo sapiens, UniProt P25025). Note: in other assays of this panel Not Active means under 50% inhibition at 10 µM.
T2 sequence (P25025 whole entry): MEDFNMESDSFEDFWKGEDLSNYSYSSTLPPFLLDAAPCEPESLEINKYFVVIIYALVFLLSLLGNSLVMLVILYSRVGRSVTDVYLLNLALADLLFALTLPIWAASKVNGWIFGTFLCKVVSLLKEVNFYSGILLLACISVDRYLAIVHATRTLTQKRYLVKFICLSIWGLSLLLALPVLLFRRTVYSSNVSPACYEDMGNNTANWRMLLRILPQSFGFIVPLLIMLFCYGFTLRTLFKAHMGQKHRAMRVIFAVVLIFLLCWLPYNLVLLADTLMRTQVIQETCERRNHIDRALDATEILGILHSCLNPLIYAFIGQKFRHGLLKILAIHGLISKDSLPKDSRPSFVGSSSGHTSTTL
The assay is classed as cell membranes, Membrane. Particulars: cho-k1.

For assay [5], the target named is Mitogen-activated protein kinase 14 (Homo sapiens, UniProt Q16539). On the set-up: species or system Escherichia coli.
Sequence of Mitogen-activated protein kinase 14 (Q16539 whole entry): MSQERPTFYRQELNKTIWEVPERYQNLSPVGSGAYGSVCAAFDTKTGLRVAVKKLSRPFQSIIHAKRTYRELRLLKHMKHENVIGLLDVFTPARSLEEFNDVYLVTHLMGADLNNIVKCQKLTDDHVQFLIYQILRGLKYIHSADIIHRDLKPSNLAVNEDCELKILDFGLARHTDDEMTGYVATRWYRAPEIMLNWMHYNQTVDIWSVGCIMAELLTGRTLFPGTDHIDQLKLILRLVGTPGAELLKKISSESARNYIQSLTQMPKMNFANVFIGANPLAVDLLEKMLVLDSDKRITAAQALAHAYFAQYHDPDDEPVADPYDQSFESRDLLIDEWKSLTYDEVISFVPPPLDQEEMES
The target of assay [6] is T3, Cholecystokinin receptor type A (Homo sapiens, UniProt P32238). Note: in other assays of this panel Not Active means under 50% inhibition at 10 µM.
T3 sequence (P32238 whole entry): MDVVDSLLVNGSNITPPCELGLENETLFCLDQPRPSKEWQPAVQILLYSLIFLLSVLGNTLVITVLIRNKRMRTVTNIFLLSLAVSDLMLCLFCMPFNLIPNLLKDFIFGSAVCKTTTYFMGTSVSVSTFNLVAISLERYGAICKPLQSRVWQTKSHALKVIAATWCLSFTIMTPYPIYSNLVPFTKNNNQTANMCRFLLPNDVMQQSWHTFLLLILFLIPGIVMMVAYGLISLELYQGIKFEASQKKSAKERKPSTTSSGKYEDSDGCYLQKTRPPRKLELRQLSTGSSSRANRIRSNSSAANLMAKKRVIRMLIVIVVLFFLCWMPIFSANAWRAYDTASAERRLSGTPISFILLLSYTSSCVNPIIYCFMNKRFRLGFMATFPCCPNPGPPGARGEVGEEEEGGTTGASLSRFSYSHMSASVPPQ
It counts as cell membranes, Membrane. As to conditions: 1321-n1.

Assay [7] addresses Sigma non-opioid intracellular receptor 1 (Homo sapiens, UniProt Q99720). As to the kind of experiment: DRUGMATRIX: Sigma1 radioligand binding (ligand: [3H] Haloperidol). It counts as cell membranes, Jurkat, Membrane. As to conditions: Not Active = under 50% inhibition at 10 µM.

Sequence of Insulin receptor (P15127 27-759 limits assumed): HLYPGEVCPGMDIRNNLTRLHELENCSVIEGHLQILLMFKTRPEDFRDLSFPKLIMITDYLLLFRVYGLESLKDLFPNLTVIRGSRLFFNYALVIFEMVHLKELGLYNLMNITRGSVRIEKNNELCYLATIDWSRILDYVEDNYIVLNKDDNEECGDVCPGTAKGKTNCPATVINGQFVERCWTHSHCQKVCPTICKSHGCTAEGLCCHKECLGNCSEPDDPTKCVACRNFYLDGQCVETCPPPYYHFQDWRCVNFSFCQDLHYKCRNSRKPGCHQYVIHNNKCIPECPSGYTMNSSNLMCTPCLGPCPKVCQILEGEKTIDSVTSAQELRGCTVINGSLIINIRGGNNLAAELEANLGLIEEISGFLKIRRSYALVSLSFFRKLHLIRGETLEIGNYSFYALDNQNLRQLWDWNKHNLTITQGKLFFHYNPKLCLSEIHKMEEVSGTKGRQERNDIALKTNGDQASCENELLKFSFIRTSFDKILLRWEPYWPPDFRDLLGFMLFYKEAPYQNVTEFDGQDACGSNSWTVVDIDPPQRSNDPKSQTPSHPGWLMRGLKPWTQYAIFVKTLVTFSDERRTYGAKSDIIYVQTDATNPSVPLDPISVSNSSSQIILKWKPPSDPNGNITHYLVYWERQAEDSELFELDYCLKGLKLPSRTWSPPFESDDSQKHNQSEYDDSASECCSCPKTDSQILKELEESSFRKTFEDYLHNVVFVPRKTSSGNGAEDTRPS
Sequence of Insulin receptor (P15127 764-1383 limits assumed): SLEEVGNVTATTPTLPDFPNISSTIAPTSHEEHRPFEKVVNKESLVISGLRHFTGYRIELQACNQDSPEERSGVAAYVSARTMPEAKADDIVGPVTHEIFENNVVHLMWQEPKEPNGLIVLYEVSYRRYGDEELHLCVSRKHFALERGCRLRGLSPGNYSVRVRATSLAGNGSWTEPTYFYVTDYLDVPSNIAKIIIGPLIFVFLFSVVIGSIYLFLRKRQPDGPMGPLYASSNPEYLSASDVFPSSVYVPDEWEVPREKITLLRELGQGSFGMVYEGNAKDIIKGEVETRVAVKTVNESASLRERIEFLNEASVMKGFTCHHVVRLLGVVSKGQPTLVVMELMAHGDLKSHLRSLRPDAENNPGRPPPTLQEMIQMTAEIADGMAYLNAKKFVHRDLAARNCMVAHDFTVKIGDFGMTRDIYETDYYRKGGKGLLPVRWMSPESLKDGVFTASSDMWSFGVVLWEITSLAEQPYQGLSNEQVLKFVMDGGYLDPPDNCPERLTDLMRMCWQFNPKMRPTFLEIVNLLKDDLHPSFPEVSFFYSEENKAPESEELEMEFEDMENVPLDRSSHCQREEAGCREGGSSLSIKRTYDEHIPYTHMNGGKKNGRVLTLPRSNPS
Sequence of Sigma non-opioid intracellular receptor 1 (Q99720 whole entry): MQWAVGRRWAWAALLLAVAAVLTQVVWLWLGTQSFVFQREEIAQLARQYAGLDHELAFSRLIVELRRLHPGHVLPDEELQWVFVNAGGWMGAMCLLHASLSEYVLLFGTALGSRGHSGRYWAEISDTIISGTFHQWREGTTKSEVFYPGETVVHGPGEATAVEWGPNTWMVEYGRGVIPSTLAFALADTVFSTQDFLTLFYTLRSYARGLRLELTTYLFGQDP

The term IC50 denotes the concentration needed to halve the response being measured. One may read the Ki as the equilibrium dissociation constant of an inhibitor or competing ligand from its target. As to `CN(Cc1ccc(C(C)(C)C)cc1)Cc1cccc2ccccc12` [BUTENAFINE], the IC50 entry in assay [1], in assay [2], in assay [3], in assay [4], in assay [5] and in assay [6] was “Not Active” throughout. Besides, in assay [7] (read-out: IC50), the IC50 was determined as 3950 nM. For the same compound, in assay [7] (read-out: Ki), the Ki was 1660 nM.

Turning to `Sc1ncnc2nc[nH]c12` [MERCAPTOPURINE ANHYDROUS], the IC50 result in assay [1], in assay [2], in assay [3], in assay [4], in assay [5] and in assay [6] was “Not Active” each time. In addition, the IC50 entry in assay [7] (jurkat) is “Not Active”.

Take `CC(C)(C)NCC(O)c1cc(Cl)c(N)c(Cl)c1` (stereo not drawn) [CLENBUTEROL]: the IC50 result in assay [1], in assay [2], in assay [3], in assay [4], in assay [5] and in assay [6] was “Not Active” each time. In addition, the IC50 result in assay [7] (jurkat) was “Not Active”.

In the case of `c1ccc2c(c1)c1cccc3ccc4cccc2c4c31` [BENZO[E]PYRENE], the IC50 entry in assay [1], in assay [2], in assay [3], in assay [4], in assay [5] and in assay [6] was “Not Active” throughout. For the same compound, the IC50 entry in assay [7] (jurkat) was “Not Active”.

With `Cc1ccc(N(CC2=NCCN2)c2cccc(O)c2)cc1` [PHENTOLAMINE], the IC50 entry in assay [1], in assay [2], in assay [3], in assay [4], in assay [5] and in assay [6] was “Not Active” throughout. Further, the IC50 entry in assay [7] (jurkat) is listed as “Not Active”.

In the case of `CC1(C)O[C@@H]2C[C@H]3[C@@H]4CCC5=CC(=O)CC[C@]5(C)[C@@]4(F)[C@@H](O)C[C@]3(C)[C@]2(C(=O)CCl)O1` [HALCINONIDE], the half-inhibitory concentration (IC50) result in assay [1], in assay [2], in assay [3], in assay [4], in assay [5] and in assay [6] was “Not Active” each time. The half-maximal inhibitory concentration (IC50) entry in assay [7] (jurkat) is reported as “Not Active”.

For the compound `NC(=O)N1c2ccccc2CCc2ccccc21`, the IC50 entry in assay [1], in assay [2], in assay [3], in assay [4], in assay [5] and in assay [6] was “Not Active” throughout. Further, the IC50 result in assay [7] (jurkat) is reported as “Not Active”.

Turning to `CC(C)C(Br)C(=O)NC(N)=O` (stereo not drawn) [BROMISOVALUM], the IC50 result in assay [1], in assay [2], in assay [3], in assay [4], in assay [5] and in assay [6] was “Not Active” in each case. The half-maximal inhibitory concentration (IC50) result in assay [7] (jurkat) is on record as “Not Active”.

Regarding `COc1ccc(C[C@H]2NC[C@H](O)[C@H]2OC(C)=O)cc1` [ANISOMYCIN], the IC50 entry in assay [1], in assay [2], in assay [3], in assay [4], in assay [5] and in assay [6] was “Not Active” in each case. Also, in assay [7] (jurkat), the half-maximal inhibitory concentration (IC50) result is reported as “Not Active”. Also, the inhibition constant Ki result in assay [1], in assay [2], in assay [3], in assay [4], in assay [5] and in assay [6] was “Not Active” throughout. Further, the Ki result in assay [7] (jurkat) was “Not Active”.

As for `O=C1CC[C@@H](N2C(=O)c3ccccc3C2=O)C(=O)N1`, the half-inhibitory concentration (IC50) result in assay [1], in assay [2], in assay [3], in assay [4], in assay [5] and in assay [6] was “Not Active” each time. Further, in assay [7] (jurkat), the IC50 result was “Not Active”.

With `Cc1c(O)c(=O)ccn1C` [DEFERIPRONE], the half-inhibitory concentration (IC50) result in assay [1], in assay [2], in assay [3], in assay [4], in assay [5] and in assay [6] was “Not Active” throughout. Further, the IC50 entry in assay [7] (jurkat) was “Not Active”.

As for `CCOc1ccc(NC(C)=O)cc1` [PHENACETIN], the half-maximal inhibitory concentration (IC50) entry in assay [1], in assay [2], in assay [3], in assay [4], in assay [5] and in assay [6] was “Not Active” each time. For the same compound, in assay [7] (jurkat), the half-inhibitory concentration (IC50) result is given as “Not Active”.

Regarding `NC1=NC(=O)C(c2ccccc2)O1` (stereo not drawn) [PEMOLINE], the half-inhibitory concentration (IC50) result in assay [1], in assay [2], in assay [3], in assay [4], in assay [5] and in assay [6] was “Not Active” in each case. Moreover, in assay [7] (jurkat), the IC50 result was “Not Active”.

`CN(C)c1nc(N(C)C)nc(N(C)C)n1` [ALTRETAMINE]: the IC50 entry in assay [1], in assay [2], in assay [3], in assay [4], in assay [5] and in assay [6] was “Not Active” throughout. Besides, the concentration for half-maximal inhibition (IC50) entry in assay [7] (jurkat) is recorded as “Not Active”.

Regarding `CCn1cc(C(=O)O)c(=O)c2cc(F)c(N3CCNCC3)cc21` [NORFLOXACIN], the IC50 entry in assay [1], in assay [2], in assay [3], in assay [4], in assay [5] and in assay [6] was “Not Active” throughout. The IC50 result in assay [7] (jurkat) was “Not Active”.

On to `CCCN1C[C@H](CSC)C[C@@H]2c3cccc4[nH]cc(c34)C[C@H]21` [PERGOLIDE], for which the IC50 result in assay [1], in assay [2], in assay [3], in assay [4], in assay [5] and in assay [6] was “Not Active” each time. Further, the half-maximal inhibitory concentration (IC50) entry in assay [7] (jurkat) is “Not Active”.

For the compound `C=C(C)C1(O)OC(=O)C=C1OC` (stereo not drawn) [PENICILLIC ACID], the half-inhibitory concentration (IC50) result in assay [1], in assay [2], in assay [3], in assay [4], in assay [5] and in assay [6] was “Not Active” in each case. Further, the IC50 result in assay [7] (jurkat) is recorded as “Not Active”.

Regarding `C[C@H](CS)C(=O)N1CCC[C@H]1C(=O)O` [CAPTOPRIL], the IC50 result in assay [1], in assay [2], in assay [3], in assay [4], in assay [5] and in assay [6] was “Not Active” each time. The half-inhibitory concentration (IC50) result in assay [7] (jurkat) is listed as “Not Active”.

`C[C@H]1O[C@@H](O[C@H]2[C@@H](O)C[C@H](O[C@H]3[C@@H](O)C[C@H](O[C@H]4CC[C@@]5(C)[C@H](CC[C@@H]6[C@@H]5C[C@@H](O)[C@]5(C)[C@@H](C7=CC(=O)OC7)CC[C@]65O)C4)O[C@@H]3C)O[C@@H]2C)C[C@H](O)[C@@H]1O` [DIGOXIN]: the IC50 entry in assay [1], in assay [2], in assay [3], in assay [4], in assay [5] and in assay [6] was “Not Active” throughout. Also, in assay [7] (jurkat), the IC50 entry was “Not Active”.

In the case of `CN(C)C(=O)Oc1cc(OC(=O)N(C)C)cc(C(O)CNC(C)(C)C)c1` (stereo not drawn) [BAMBUTEROL], the half-maximal inhibitory concentration (IC50) entry in assay [1], in assay [2], in assay [3], in assay [4], in assay [5] and in assay [6] was “Not Active” throughout. The IC50 entry in assay [7] (jurkat) is reported as “Not Active”.

The record behind these values is ChEMBL document CHEMBL1909046, “DrugMatrix in vitro pharmacology data”.
